Assay results reported in US5834429A, “Small peptides which inhibit binding to T-4 receptors and act as immunogens” (priority 1993, dated 1998).

Key:
[1] = tested on: T4 antigen (gp120 receptor) on fresh rat hippocampal membranes; assay: Displacement of specific 125I-gp120 binding to brain membranes; conditions: for potency compared with peptide T (in words): FIG. 3; for rank order of potencies in inhibiting receptor binding: four peptides
Method: HTLV-IIIb isolate of HIV was propaged in H9 cells, and the gp120 was isolated by immunoaffinity chromatography and preparative NaDodSO4 /PAGE. Purified gp120 was labeled with ^125 I by the chloramine-T method.
Fresh human, monkey, and rat hippocampus were quickly homogenized (POLYTRON, Brinkmann Instruments) in 100 vol of ice-cold 50 mM Hepes (pH 7.4). The membranes collected by centrifugation (15,000×g) were washed in the original buffer volume and were used fresh or stored at -70° C. Before use, brain membranes and highly purified T cells (ref. 16; gift of Larry Wahl) were preincubated for 15-30 min in phosphate-buffered saline (PBS). Membranes derived from 2 mg (initial wet weight) of brain (.chi.100 μg of protein) were incubated with 28,000 cpm of ^125 I-gp120 for 1 hr at 37° C. in 200 μl (final volume) of 50 mM Hepes containing 0.1% bovine serum albumin and the peptidase inhibitors bacitracin (0.005%), aprotinin (0.005%), leupeptin (0.001%), and chymostatin (0.001%). Incubations were rapidly vacuum-filtered and counted to determine the receptor-bound material.

[2] = tested on: HTLV-III virus (HIV); assay: Blockade of viral infection of human T cells (reverse transcriptase activity); format: cell-based; conditions: FIG. 3; for rank order of potencies in inhibiting viral infectivity: four peptides
Method: Separation of T-Lymphocyte Subsets. Subsets of T cells were obtained by treatment of PERCOLL density-purified peripheral blood T cells with specific monoclonal antibodies (T4 or T8) at 10 μg/ml. The treated cells were then panned (21) on a plastic Petri dish that was coated with goat [F(ab')2 ] anti-mouse immunoglobulin (Sero Lab, Eastbury, Mass.) for 30 min at 4° C. The nonadherent cells were then removed, washed, and analyzed for reactivity by flow cytometry. The separated T4 and T8 cell populations have <5% contamination of other T-cell subsets. Cells were then cultured with phytohemagglutinin (1 μg/ml) for 72 hr and exposed to HIV as described below. Infected cells were phenotypically characterized when cytotoxicity assays were performed.
Virus Infection. The HTLV-III virus used for infection was isolated from an interleukin 2 (IL-2)-dependent cultured T-cell line established from fresh AIDS patient material and passaged into HuT 78, a permissive IL-2-independent cell line.

[3] = target: T4 viral receptors (Homo sapiens, UniProt P01730); assay: Activity of cysteine-extended core peptide (test not specified)

| Compound | potency compared with peptide T (in words) [1] | rank order of potencies in inhibiting receptor binding [1] | rank order of potencies in inhibiting viral infectivity [2] | inhibition of gp120 binding to brain membranes (in words) [1] | concentration range at which 125I-gp120 binding is significantly inhibited ([1]; fresh rat hippocampal membranes, FIG. 2C) [nM] | blockade of viral infectivity (in words) ([2]; human T cells) | activity (in words) [3] |
| --- | --- | --- | --- | --- | --- | --- | --- |
| C[C@@H](N)C(=O)N[C@@H](CO)C(=O)N[C@H](C(=O)N[C@H](C(=O)N[C@H](C(=O)N[C@@H](CC(N)=O)C(=O)N[C@@H](Cc1ccc(O)cc1)C(=O)N[C@H](C(N)=O)[C@@H](C)O)[C@@H](C)O)[C@@H](C)O)[C@@H](C)O [D-[Ala]1-peptide T-amide] | somewhat greater potency | D-[Ala]1 -peptide T-amide>D-[Ala]1 -peptide T>peptide T>D-[Thr]8 -peptide T-amide | D-[Ala]1 -peptide T-amide>D-[Ala]1 -peptide T>peptide T>D-[Thr]8 -peptide T-amide | – | – | – | – |
| C[C@@H](N)C(=O)N[C@@H](CO)C(=O)N[C@H](C(=O)N[C@H](C(=O)N[C@H](C(=O)N[C@@H](CC(N)=O)C(=O)N[C@@H](Cc1ccc(O)cc1)C(=O)N[C@H](C(=O)O)[C@@H](C)O)[C@@H](C)O)[C@@H](C)O)[C@@H](C)O [D-[Ala]1-peptide T] | consistently more potent | D-[Ala]1 -peptide T-amide>D-[Ala]1 -peptide T>peptide T>D-[Thr]8 -peptide T-amide | D-[Ala]1 -peptide T-amide>D-[Ala]1 -peptide T>peptide T>D-[Thr]8 -peptide T-amide | – | – | – | – |
| C[C@H](N)C(=O)N[C@@H](CO)C(=O)N[C@H](C(=O)N[C@H](C(=O)N[C@H](C(=O)N[C@@H](CC(N)=O)C(=O)N[C@@H](Cc1ccc(O)cc1)C(=O)N[C@H](C(=O)O)[C@@H](C)O)[C@@H](C)O)[C@@H](C)O)[C@@H](C)O [peptide T] | – | D-[Ala]1 -peptide T-amide>D-[Ala]1 -peptide T>peptide T>D-[Thr]8 -peptide T-amide | D-[Ala]1 -peptide T-amide>D-[Ala]1 -peptide T>peptide T>D-[Thr]8 -peptide T-amide | inhibit binding of gp 120 to the brain membranes | ~0.1 | blocked | – |
| CYS-THR-THR-ASN-TYR-THR-CYS (CTTNYTC; printed: CYS-THR-THR-ASN-TYR-THR-CYS) | – | – | – | – | – | – | active |
| substance P [1-8]: irrelevant octapeptide substance P [1-8] (RPKPQQFF; Substance P; UniProt P20366 58-65, looked up, fragment) [reference compound] | – | – | – | not | – | – | – |
